In US11219621B2, “Methods for treating immunodeficiency disease” (X4 Pharmaceuticals, Inc., priority 2015, dated 2022):

Legend:
[1] = test system: granulocyte-macrophage (CFU-GM), erythroid (BFU-E) and multipotential (CFU-GEMM) progenitor cells; test: Progenitor/stem cell mobilization in mice after single subcutaneous injection; format: in vivo, C3H/HeJ mice; conditions: for BFU (BFU-E), Mean / GEMM (CFU-GEMM), Mean / GM (CFU-GM), Mean: progenitor cells per mL of blood
Description: All experiments were performed in […] mice. […] The progenitors were stimulated to form colonies in vitro with the combination of 1 U/mL rhu EPO, 50 ng/mL rmu SLF, 5% vol/vol pokeweed mitogen mouse spleen cell conditioned medium (PWMSCM), and 0.1 mM hemin. Plates were scored 7 days after incubation at 37° C., 5% CO2, lowered […] and in a humidified chamber.
In the first experiment (data shown in Table 6), mice received a dose of 5 mg/kg- and the number of progenitors in the circulating blood was measured at various time points (0.25, 0.5, 1, 2, 6 and 24 hours).

[2] = human, in vivo
[3] = molecular target: T1, CCR5 (Homo sapiens, UniProt P51681); conditions: cited from earlier work
T1 construct: expressed in transfected cells

[4] = molecular target: T2, CCR2b (Homo sapiens, UniProt P41597); conditions: cited from earlier work
T2 construct: expressed in transfected cells
T2 sequence (P41597 1-360 isoform P41597-2): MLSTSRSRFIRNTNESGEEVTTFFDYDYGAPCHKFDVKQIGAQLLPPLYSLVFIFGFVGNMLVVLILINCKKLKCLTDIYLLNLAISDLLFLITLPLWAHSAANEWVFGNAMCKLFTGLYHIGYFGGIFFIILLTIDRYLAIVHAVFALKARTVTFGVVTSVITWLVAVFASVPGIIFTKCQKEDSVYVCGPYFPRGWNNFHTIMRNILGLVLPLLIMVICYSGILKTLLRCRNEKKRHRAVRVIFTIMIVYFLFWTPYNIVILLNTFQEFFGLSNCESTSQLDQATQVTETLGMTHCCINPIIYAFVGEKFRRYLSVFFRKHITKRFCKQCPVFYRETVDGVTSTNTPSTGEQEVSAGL

[5] = test system: granulocyte-macrophage (CFU-GM), erythroid (BFU-E) and multipotential (CFU-GEMM) progenitor cells; test: Progenitor/stem cell mobilization in mice after single subcutaneous injection; format: in vivo, C3H/HeJ mice
[6] = 28-Day GLP oral (capsule) toxicity study in the Beagle dog with 14-day recovery; format: in vivo
Description: A 28-Day GLP oral (capsule) toxicology study was conducted with […]-001 in the male and female beagle dog, and hematology effects were observed, with […]-001 administered twice-daily (at least 7 hours apart) by oral capsule for 28 days. A subset of treated animals was evaluated after a 14-day recovery period. [table] [table]

[7] = Table 6, 5 mg/kg s.c., @ - 2′ (2 h)
[8] = Table 6, 5 mg/kg s.c., @ - 6′ (6 h)
[9] = Table 6, 5 mg/kg s.c., @ - 15″ ([…])
[10] = Table 6, 5 mg/kg s.c., @ - 24′ (24 h)
[11] = Table 6, 5 mg/kg s.c., @ - 30″ (0.5 h)
[12] = Table 6, 5 mg/kg s.c., @ - 60″ (1 h)
[13] = Table 7, 1 hour post-injection, 1.5 mg/kg s.c.
[14] = Table 7, 1 hour post-injection, 5 mg/kg s.c.
[15] = Table 7, 1 hour post-injection, 10 mg/kg s.c.
[16] = Table 7, 1 hour post-injection, 20 mg/kg s.c.
[17] = Table 8, 5 mg/kg s.c., @ - 2′ (2 h)
[18] = Table 8, 5 mg/kg s.c., @ - 15″ ([…])
[19] = Table 8, 5 mg/kg s.c., @ - 30″ (0.5 h)
[20] = Table 8, 5 mg/kg s.c., @ - 60″ (1 h)
[21] = time course, 5 mg/kg s.c., 30-60 min.
[22] = F, 10 mg/kg/d, termination, †p < 0.05
[23] = F, 30 mg/kg/d, termination, †p < 0.05
[24] = F, 100 mg/kg/d, termination, †p < 0.05
[25] = M, 100 mg/kg/d, termination, †p < 0.05

T1 sequence (P51681 whole entry): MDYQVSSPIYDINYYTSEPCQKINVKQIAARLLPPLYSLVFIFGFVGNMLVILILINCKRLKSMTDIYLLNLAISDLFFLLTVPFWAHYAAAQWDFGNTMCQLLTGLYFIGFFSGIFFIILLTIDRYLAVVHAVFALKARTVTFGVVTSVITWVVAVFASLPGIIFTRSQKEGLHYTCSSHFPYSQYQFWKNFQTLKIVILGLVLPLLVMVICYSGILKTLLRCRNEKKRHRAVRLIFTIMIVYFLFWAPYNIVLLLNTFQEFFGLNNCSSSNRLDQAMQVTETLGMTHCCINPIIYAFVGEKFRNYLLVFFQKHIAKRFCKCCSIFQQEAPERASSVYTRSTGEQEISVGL

Volume of distribution (VL) [2]: high
SMILES: NCCCCN(Cc1nc2ccccc2[nH]1)[C@H]1CCCc2cccnc21 [X4P-001]
BFU (BFU-E), Mean [1, 7]: 165.3 | GEMM (CFU-GEMM), Mean [1, 7]: 68.9 | GM (CFU-GM), Mean [1, 7]: 897.5 | BFU (BFU-E), Mean [1, 8]: 99.9 | GEMM (CFU-GEMM), Mean [1, 8]: 37.6 | GM (CFU-GM), Mean [1, 8]: 387.5 | BFU (BFU-E), Mean [1, 9]: 148.8 | GEMM (CFU-GEMM), Mean [1, 9]: 65.6 | GM (CFU-GM), Mean [1, 9]: 785.1 | BFU (BFU-E), Mean [1, 10]: 84.6 | GEMM (CFU-GEMM), Mean [1, 10]: 37.7 | GM (CFU-GM), Mean [1, 10]: 386.3 | BFU (BFU-E), Mean [1, 11]: 230.4 | GEMM (CFU-GEMM), Mean [1, 11]: 99.6 | GM (CFU-GM), Mean [1, 11]: 1273.8 | BFU (BFU-E), Mean [1, 12]: 235.1 | GEMM (CFU-GEMM), Mean [1, 12]: 103.1 | GM (CFU-GM), Mean [1, 12]: 866.0 | Nucleated Cellularity PBL-LD, Mean ([1]; Table 6 time course, 5 mg/kg s.c., @ - 2′ (2 h)): 8.29e+06 mL⁻¹ | Nucleated Cellularity PBL-LD, Mean ([1]; Table 6 time course, 5 mg/kg s.c., @ - 6′ (6 h)): 5.66e+06 mL⁻¹ | Nucleated Cellularity PBL-LD, Mean ([1]; Table 6 time course, 5 mg/kg s.c., @ - 15″ ([…])): 5.1e+06 mL⁻¹ | Nucleated Cellularity PBL-LD, Mean ([1]; Table 6 time course, 5 mg/kg s.c., @ - 24′ (24 h)): 4.31e+06 mL⁻¹ | Nucleated Cellularity PBL-LD, Mean ([1]; Table 6 time course, 5 mg/kg s.c., @ - 30″ (0.5 h)): 6.14e+06 mL⁻¹ | Nucleated Cellularity PBL-LD, Mean ([1]; Table 6 time course, 5 mg/kg s.c., @ - 60″ (1 h)): 6.92e+06 mL⁻¹ | BFU (BFU-E), Mean [1, 13]: 143.8 | GM (CFU-GM), Mean [1, 13]: 428.0 | BFU (BFU-E), Mean [1, 14]: 181.6 | GEMM (CFU-GEMM), Mean [1, 14]: 141.0 | GM (CFU-GM), Mean [1, 14]: 1119.8 | GEMM (CFU-GEMM), Mean [1, 15]: 224.4 | GM (CFU-GM), Mean [1, 15]: 1444.2 | BFU (BFU-E), Mean [1, 16]: 261.4 | GEMM (CFU-GEMM), Mean [1, 16]: 145.0 | GM (CFU-GM), Mean [1, 16]: 1314.2 | Nucleated Cellularity PBL-LD, Mean ([1]; Table 7 dose response, 1 hour post-injection, 1.5 mg/kg s.c.): 6.94e+06 mL⁻¹ | Nucleated Cellularity PBL-LD, Mean ([1]; Table 7 dose response, 1 hour post-injection, 5 mg/kg s.c.): 7.65e+06 mL⁻¹ | Nucleated Cellularity PBL-LD, Mean ([1]; Table 7 dose response, 1 hour post-injection, 10 mg/kg s.c.): 9.94e+06 mL⁻¹ | BFU (BFU-E), Mean [1, 17]: 108.5 | GEMM (CFU-GEMM), Mean [1, 17]: 62.4 | GM (CFU-GM), Mean [1, 17]: 619.6 | BFU (BFU-E), Mean [1, 18]: 188.9 | GEMM (CFU-GEMM), Mean [1, 18]: 93.8 | GM (CFU-GM), Mean [1, 18]: 588.3 | GEMM (CFU-GEMM), Mean [1, 19]: 79.0 | GM (CFU-GM), Mean [1, 19]: 705.9 | GEMM (CFU-GEMM), Mean [1, 20]: 102.2 | GM (CFU-GM), Mean [1, 20]: 761.4 | Nucleated Cellularity PBL-LD, Mean ([1]; Table 8 comparison, 5 mg/kg s.c., @ - 2′ (2 h)): 9.71e+06 mL⁻¹ | Nucleated Cellularity PBL-LD, Mean ([1]; Table 8 comparison, 5 mg/kg s.c., @ - 15″ ([…])): 8.04e+06 mL⁻¹ | Nucleated Cellularity PBL-LD, Mean ([1]; Table 8 comparison, 5 mg/kg s.c., @ - 30″ (0.5 h)): 8.28e+06 mL⁻¹ | Nucleated Cellularity PBL-LD, Mean ([1]; Table 8 comparison, 5 mg/kg s.c., @ - 60″ (1 h)): 7.34e+06 mL⁻¹ | Peak increase of BFU-E over control (saline injection) [1, 21]: 2.49-2.54 fold | Peak increase of CFU-GEMM over control (saline injection) [1, 21]: 2.58-2.67 fold | Peak increase of CFU-GM over control (saline injection) ([1]; time course, 5 mg/kg s.c., 30 min.): 4.21 fold | Time of peak of nucleated cell mobilization ([1]; time course, 5 mg/kg s.c., approximately): 1-2 hours post-injection | Number of circulating progenitors ([1]; up to a dose of 5-10 mg/kg s.c.): dose-dependently increased | IC50 ([3]; CCR5, HEK293F-CCR5, RANTES/CCL5, read-out: IC50 AMD11070): > 50 µM | Inhibitory effect on RANTES mediated calcium flux (CCR5) [3]: little or no inhibitory effect | IC50 ([4]; CCR2b, HEK293F-CCR2b, MCP-1/CCL2, read-out: IC50 AMD11070): > 50 µM | Inhibitory effect on MCP-1 mediated calcium flux (CCR2b) [4]: little or no inhibitory effect | GEMM (CFU-GEMM), Mean ([5]; Table 7, progenitor cells per mL of blood, 1 hour post-injection, 1.5 mg/kg s.c.): 53.3 | BFU (BFU-E), Mean ([5]; Table 7, progenitor cells per mL of blood, 1 hour post-injection, 10 mg/kg s.c.): 268.1 | Nucleated Cellularity PBL-LD, Mean ([5]; Table 7 dose response, 1 hour post-injection, 20 mg/kg s.c.): 9.62e+06 mL⁻¹ | BFU (BFU-E), Mean ([5]; Table 8, progenitor cells per mL of blood, 5 mg/kg s.c., @ - 30″ (0.5 h)): 151.9 | BFU (BFU-E), Mean ([5]; Table 8, progenitor cells per mL of blood, 5 mg/kg s.c., @ - 60″ (1 h)): 144.3 | Coagulation ([6]; 10 mg/kg/d, termination): No changes | reticulocytes ([6]; 10 mg/kg/d, termination): No changes | Coagulation ([6]; 30 mg/kg/d, termination): No changes | reticulocytes ([6]; 30 mg/kg/d, termination): No changes | Coagulation ([6]; 100 mg/kg/d, termination): No changes | lymphocytes (abs), incr ([6]; F, 10 mg/kg/d, termination): F incr 1.4x | monocytes (abs), incr [6, 22]: F incr 1.6x† | neutrophils (abs), incr [6, 22]: F incr 1.9x† | lymphocytes (abs), incr [6, 23]: F incr 1.6x† | monocytes (abs), incr [6, 23]: F incr 1.9x† | neutrophils (abs), incr [6, 23]: F incr 2.3x† | lymphocytes (abs), incr [6, 24]: F incr 1.4x† | monocytes (abs), incr [6, 24]: F incr 2.4x† | neutrophils (abs), incr [6, 24]: F incr 2.8x† | reticulocytes, decr [6, 24]: F decr 0.24x† | lymphocytes (abs), incr ([6]; M, 10 mg/kg/d, termination): M incr 1.3x; | monocytes (abs), incr ([6]; M, 10 mg/kg/d, termination): M incr 1.2x; | neutrophils (abs), incr ([6]; M, 10 mg/kg/d, termination): M incr 1.2x; | lymphocytes (abs), incr ([6]; M, 30 mg/kg/d, termination): M incr 1.6x; | monocytes (abs), incr ([6]; M, 30 mg/kg/d, termination): M incr 1.3x; | neutrophils (abs), incr ([6]; M, 30 mg/kg/d, termination): M incr 1.2x; | neutrophils (abs), incr ([6]; M, 100 mg/kg/d, termination): M incr 1.8x; | lymphocytes (abs), incr [6, 25]: M incr 2.3x†; | monocytes (abs), incr [6, 25]: M incr 1.9x†; | All hematology results after the 14-day recovery period ([6]; only 100 mg/kg dose group evaluated): returned to within normal levels
